Measurements reported in patent publication US20230339937A1, “CONDENSED RING COMPOUNDS THAT INHIBIT H-PGDS” (SATO PHARMACEUTICAL CO., LTD., priority 2020, published 2023).

Molecular target: T1, Recombinant human H-PGDS (Homo sapiens, UniProt O60760)
T1 construct: made in house; host or cells: E. coli
Test: H-PGDS inhibitory activity (prostaglandin D2 production from prostaglandin H2, measured by LC-MS/MS)
Type: biochemical
Settings: recombinant human H-PGDS 1.0 nM expressed in E. coli; prostaglandin H2 25 μM; preincubated 15 minutes on ice, reacted on ice for 1 minute; concentration that inhibits prostaglandin D2 production by 50%
Experimental: The H-PGDS inhibitory activity of each Example compound was measured according to the method reported by LIN, Jiang. et al. (NO 2007/041634).
Recombinant human H-PGDS (final concentration: 1.0 nM) expressed in E. coli was mixed in an assay buffer containing 20 mM Tris-HCl (pH 8.0), 2 mM magnesium chloride, 2 mM reduced glutathione, and 0.5 mg/mL γ-globulin, and 150 μL of the mixture was dispensed into a 8-strip PCR tube (BM Equipment Co., Ltd.). Test compounds (Example compounds) (16.5 μL) at various concentrations dissolved in DMSO were added and the mixture was preincubated for 15 minutes on ice.
Prostaglandin H2 (final concentration: 25 μM) (Cayman Chemical) was dispensed into another 8-strip PCR tube, and the solvent was dried and solidified using a vacuum concentrator (Thermo Fisher Scientific). To the dried and solidified prostaglandin H2 was added 50 μL of the assay buffer containing H-PGDS and each test compound after the preincubation, and the mixture was reacted on ice for 1 minute. 45 μL of this mixture was added to 45 μL of a stop solution (50 mM aqueous citric acid solution containing iron chloride at a final concentration of 4 mg/mL) to stop the reaction. Then, the reaction solution was deproteinized, added to a 96 square deep well plate (SHONANMARUHACHI STEC Co., Ltd.), and the prostaglandin D2 concentration in the reaction solution was measured by LC-MS/MS. ACQUITY (registered trademark) TQD (Waters) was used as a measuring instrument.
Prostaglandin Da production activity (f) in the group with each test compound when a value obtained by subtracting the amount of production of prostaglandin D2 in the group without enzyme, which is non-specific production of prostaglandin D2, from the amount of production of prostaglandin Da in the group without test compound (DMSO-addition group) in each 8-strip PCR tube is 100% was calculated.

T1 sequence (O60760 whole entry): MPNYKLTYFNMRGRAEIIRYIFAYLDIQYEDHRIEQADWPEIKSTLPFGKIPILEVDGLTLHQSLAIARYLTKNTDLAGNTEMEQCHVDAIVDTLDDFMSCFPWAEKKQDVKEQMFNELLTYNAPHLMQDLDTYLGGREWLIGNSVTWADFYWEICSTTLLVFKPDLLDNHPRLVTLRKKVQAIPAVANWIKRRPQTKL

SMILES | IC50 [nM]
CC[C@]1(O)CC[C@H](NC(=O)c2ccc(-c3nccc4occc34)cc2)CC1 [Example 289, N-(trans-4-ethyl-4-hydroxycyclohexyl)-4-(furo[3,2-c]pyridin-4-yl)benzamide] | 1.6
CC(=O)[C@@H]1CC[C@@H](NC(=O)c2ccc(-c3nccc4occc34)cc2)CO1 [Example 213, N-[(3R,6S)-6-acetyltetrahydro-2 H-pyran-3-yl]-4-(furo[3,2-c]pyridin-4-yl)benzamide] | 4.3
O=C(NCc1ccco1)c1ccc(-c2nccc3[nH]ccc23)cc1 [Example 26, N-(furan-2-ylmethyl)-4-(1H-pyrrolo[3,2-c]pyridin-4-yl)benzamide] | 1.7
Cn1cnc(CO)c1N1CCC(NC(=O)c2ccc(-c3nccc4occc34)cc2)CC1 [Example 253, 4-(furo[3,2-c]pyridin-4-yl)-N-{1-[4-(hydroxymethyl)-1-methyl-1H-imidazol-5-yl]piperidin-4-yl}benzamide] | 1.1
CC(C)(O)[C@H]1CC[C@H](NC(=O)c2ccc(-c3nccc4[nH]ccc34)c(F)c2)CC1 [Example 340, 3-fluoro-N-[trans-4-(2-hydroxypropan-2-yl)cyclohexyl]-4-(1H-pyrrolo[3,2-c]pyridin-4-yl)benzamide] | 1
O=C(N[C@H]1CC[C@@H](OCC2(O)CC2)CC1)c1ccc(-c2nccc3occc23)cc1 [Example 353, 4-(furo[3,2-c]pyridin-4-yl)-N-(cis-4-[(1-hydroxycyclopropyl)methoxy]cyclohexyl)benzamide] | 1.4
O=C(NC1CCN(c2ccccc2)CC1)c1ccc(-c2nccc3occc23)cc1 [Example 115, 4-(furo[3,2-c]pyridin-4-yl)-N-(1-phenylpiperidin-4-yl)benzamide] | 1.1
O=C(NCC1CCOC1)c1ccc(-c2nccc3occc23)cc1 (centres unmarked) [Example 81, 4-(furo[3,2-c]pyridin-4-yl)-N-[(tetrahydrofuran-3-yl)methyl] benzamide] | 11
O=C(NC1CCN(c2cccc3nccn23)CC1)c1ccc(-c2nccc3occc23)cc1 [Example 238, 4-(furo[3,2-c]pyridin-4-yl)-N-[1-(imidazo[1,2-a]pyridin-5-yl)piperidin-4-yl]benzamide] | 3.6
Cc1cc2occc2c(-c2ccc(C(=O)N[C@H]3CC[C@H](OCC(C)(C)O)CC3)cc2)n1 [Example 342, N-[trans-4-(2-hydroxy-2-methylpropoxy)cyclohexyl]-4-(6-methylfuro[3,2-c]pyridin-4-yl)benzamide] | 3
O=C(NC1CCCCC1)c1ccc(-c2nccc3[nH]ccc23)cc1 [Example 5, N-cyclohexyl-4-(1H-pyrrolo[3,2-c]pyridin-4-yl)benzamide] | 1.6
O=C(N[C@H]1CC[C@@H](O)CC1)c1ccc(-c2nccc3occc23)cc1 [Example 262, 4-(furo[3,2-c]pyridin-4-yl)-N-(cis-4-hydroxycyclohexyl)benzamide] | 2.5
Cc1cc(S(N)(=O)=O)ccc1NC(=O)c1ccc(-c2nccc3occc23)cc1 [Example 117, 4-(furo[3,2-c]pyridin-4-yl)-N-(2-methyl-4-sulfamoylphenyl) benzamide] | 12
Cn1nccc1CNC(=O)c1ccc(-c2nccc3[nH]ccc23)cc1 [Example 37, N-[(1-methyl-1H-pyrazol-5-yl)methyl]-4-(1H-pyrrolo[3,2-c]pyridin-4-yl)benzamide] | 0.86
NS(=O)(=O)c1ccc(NC(=O)c2ccc(-c3nccc4occc34)cc2)cc1 [Example 102, 4-(furo[3,2-c]pyridin-4-yl)-N-(4-sulfamoylphenyl) benzamide] | 1.8
O=C(N[C@H]1CC[C@H](O)CC1)c1ccc(-c2nccc3occc23)c(F)c1 [Example 325, 3-fluoro-4-(furo[3,2-c]pyridin-4-yl)-N-(trans-4-hydroxycyclohexyl)benzamide] | 2.3
COCCNC(=O)c1ccc(-c2nccc3[nH]ccc23)cc1 [Example 23, N-(2-methoxyethyl)-4-(1H-pyrrolo[3,2-c]pyridin-4-yl)benzamide] | 0.79
CC(O)CNC(=O)c1ccc(-c2nccc3[nH]ccc23)cc1 (centres unmarked) [Example 31, N-(2-hydroxypropyl)-4-(1H-pyrrolo[3,2-c]pyridin-4-yl)benzamide] | 1.5
NS(=O)(=O)c1cnc(N2CCC(NC(=O)c3ccc(-c4nccc5occc45)cc3)CC2)nc1 [Example 177, 4-(furo[3,2-c]pyridin-4-yl)-N-[1-(5-sulfamoylpyrimidin-2-yl)piperidin-4-yl]benzamide] | 1.2

SMILES | IC50 [nM]
CCC(O)CNC(=O)c1ccc(-c2nccc3[nH]ccc23)cc1 (centres unmarked) [Example 33, N-(2-hydroxybutyl)-4-(1H-pyrrolo[3,2-c]pyridin-4-yl)benzamide] | 1.1
CCCCn1nnnc1N1CCC(NC(=O)c2ccc(-c3nccc4occc34)cc2)CC1 [Example 241, N-[1-(1-butyl-1H-tetrazol-5-yl)piperidin-4-yl]-4-(furo[3,2-c]pyridin-4-yl)benzamide] | 2.7
CC(C)(O)c1cnc(N2CCC(NC(=O)c3ccc(-c4nccc5occc45)cc3)CC2)nc1 [Example 185, 4-(furo[3,2-c]pyridin-4-yl)-N-{1-[5-(2-hydroxypropan-2-yl)pyrimidin-2-yl]piperidin-4-yl}benzamide] | 1.7
O=C(NC1C2CC3CC1CC(O)(C3)C2)c1ccc(-c2nccc3occc23)cc1 (stereo not drawn) [Example 272, 4-(furo[3,2-c]pyridin-4-yl)-N-(trans-5-hydroxyadamantan-2-yl)benzamide] | 2.4
CCO[C@H]1CC[C@H](NC(=O)c2ccc(-c3nccc4occc34)cc2)CC1 [Example 287, N-(trans-4-ethoxycyclohexyl)-4-(furo[3,2-c]pyridin-4-yl)benzamide] | 0.87
O=C(N[C@H]1CC[C@H](C(O)C(F)(F)F)CC1)c1ccc(-c2nccc3occc23)cc1 (stereo partly drawn) [Example 309, 4-(furo[3,2-c]pyridin-4-yl)-N-[trans-4-(2,2,2-trifluoro-1-hydroxyethyl)cyclohexyl]benzamide] | 1.9
O=C(NC1CCN(c2cccc(=O)[nH]2)CC1)c1ccc(-c2nccc3occc23)cc1 [Example 172, 4-(furo[3,2-c]pyridin-4-yl)-N-[1-(6-oxo-1,6-dihydropyridin-2-yl)piperidin-4-yl]benzamide] | 2.6
CS(=O)(=O)c1cccc(NC(=O)c2ccc(-c3nccc4occc34)cc2)c1 [Example 106, 4-(furo[3,2-c]pyridin-4-yl)-N-[3-(methylsulfonyl)phenyl]benzamide] | 3.7
O=C(NC1CN(c2ncccn2)C1)c1ccc(-c2nccc3occc23)cc1 [Example 217, 4-(furo[3,2-c]pyridin-4-yl)-N-[1-(pyrimidin-2-yl)azetidin-3-yl]benzamide] | 2.4
O=C(NC1CCN(c2nccc(N3CCC3)n2)CC1)c1ccc(-c2nccc3occc23)cc1 [Example 178, N-{1-[4-(azetidin-1-yl)pyrimidin-2-yl]piperidin-4-yl}-4-(furo[3,2-c]pyridin-4-yl)benzamide] | 1.9
O=C(NCc1ccccc1)c1ccc(-c2nccc3occc23)cc1 [Example 67, N-benzyl-4-(furo[3,2-c]pyridin-4-yl)benzamide] | 27
O=C(N[C@@H]1CC[C@@H](O)C1)c1ccc(-c2nccc3occc23)cc1 (relative stereo) [Example 268, 4-(furo[3,2-c]pyridin-4-yl)-N-(trans-3-hydroxycyclopenthyl)benzamide] | 6.4
O=C(N[C@H]1CC[C@H](NC2COC2)CC1)c1ccc(-c2nccc3occc23)cc1 [Example 295, 4-(furo[3,2-c]pyridin-4-yl)-N-[trans-4-(oxetan-3-ylamino)cyclohexyl]benzamide] | 2.1
CC(C)(O)[C@H]1CC[C@H](NC(=O)c2ccc(-c3nc(Cl)cc4occc34)cc2)CC1 [Example 312, 4-(6-chlorofuro[3,2-c]pyridin-4-yl)-N-[trans-4-(2-hydroxypropan-2-yl)cyclohexyl]benzamide] | 1.8
O=C(NCCCCO)c1ccc(-c2nccc3occc23)cc1 [Example 96, 4-(furo[3,2-c]pyridin-4-yl)-N-(4-hydroxybutyl) benzamide] | 17
CCCCNC(=O)c1ccc(-c2nccc3occc23)cc1 [Example 75, N-butyl-4-(furo[3,2-c]pyridin-4-yl)benzamide] | 20
O=C(NC1CC2(CNC2)C1)c1ccc(-c2nccc3occc23)cc1 [Example 209, 4-(furo[3,2-c]pyridin-4-yl)-N-(2-azaspiro[3.3]heptan-6-yl)benzamide] | 39
CC(C)O[C@H]1CC[C@H](NC(=O)c2ccc(-c3nccc4occc34)cc2)CC1 [Example 288, 4-(furo[3,2-c]pyridin-4-yl)-N-(trans-4-isopropoxycyclohexyl)benzamide] | 1.3
O=C(NCc1cc[nH]n1)c1ccc(-c2nccc3[nH]ccc23)cc1 [Example 54, N-[(1H-pyrazol-3-yl)methyl]-4-(1H-pyrrolo[3,2-c]pyridin-4-yl)benzamide] | 1.2
